In patent publication US12202821B2, “Herbicidal compounds” (SYNGENTA CROP PROTECTION AG, priority 2019, dated 2025):

Key:
Assay type in all cases: in vivo
[1] = system: LOLPE; experiment: Pre-emergence biological efficacy; settings: 312 h, evaluated after 13 days, read-out: damage to plant (100=total damage to plant; 0=no damage to plant), LOLPE
Description: (§1) Pre-Emergence Biological Efficacy
(§2) Seeds of weeds and/or crops were sown in standard soil in pots. After cultivation for one day under controlled conditions in a glasshouse (at 24/16° C., day/night; 14 hours light; 65% humidity), the plants were sprayed with an aqueous spray solution derived from the formulation of the technical active ingredient in acetone/water (50:50) solution containing 0.5% Tween 20 (polyoxyethylene sorbitan monolaurate, CAS RN 9005-64-5) to give the desired final dose of test compound.
(§3) The test plants were then grown under controlled conditions in the glasshouse (at 24/16° C., day/night; 14 hours light; 65% humidity) and watered twice daily. After 13 days the test was evaluated (100=total damage to plant; 0=no damage to plant).

[2] = system: IPOHE; experiment: Pre-emergence biological efficacy; settings: Ipomoea hederacea, 312 h, evaluated after 13 days, read-out: damage to plant (100=total damage to plant; 0=no damage to plant), IPOHE
Description: as §1, §2, §3

[3] = system: AMAPA; experiment: Pre-emergence biological efficacy; settings: 312 h, evaluated after 13 days, read-out: damage to plant (100=total damage to plant; 0=no damage to plant), AMAPA
Description: as §1, §2, §3

[4] = system: ECHCG; experiment: Pre-emergence biological efficacy; settings: Echinochloa crus-galli, 312 h, evaluated after 13 days, read-out: damage to plant (100=total damage to plant; 0=no damage to plant), ECHCG
Description: as §1, §2, §3

[5] = system: EPHHL; experiment: Pre-emergence biological efficacy; settings: 312 h, evaluated after 13 days, read-out: damage to plant (100=total damage to plant; 0=no damage to plant), EPHHL
Description: as §1, §2, §3

[6] = system: SETFA; experiment: Pre-emergence biological efficacy; settings: Setaria faberi, 312 h, evaluated after 13 days, read-out: damage to plant (100=total damage to plant; 0=no damage to plant), SETFA
Description: as §1, §2, §3

[7] = system: LOLPE; experiment: Post-emergence biological efficacy; settings: 312 h, evaluated after 13 days, read-out: damage to plant (100=total damage to plant; 0=no damage to plant), LOLPE
Description: (§4) Post-Emergence Biological Efficacy
as §2, with “8 days” for “one day”
(§5) The test plants were then grown on under controlled conditions in a glasshouse (at 24/16° C., day/night; 14 hours light; 65% humidity) and watered twice daily. After 13 days the test was evaluated (100=total damage to plant; 0=no damage to plant).

[8] = system: ELEIN; experiment: Post-emergence biological efficacy; settings: 312 h, evaluated after 13 days, read-out: damage to plant (100=total damage to plant; 0=no damage to plant), ELEIN
Description: as §4
as §2, with “8 days” for “one day”
as §5

[9] = system: IPOHE; experiment: Post-emergence biological efficacy; settings: Ipomoea hederacea, 312 h, evaluated after 13 days, read-out: damage to plant (100=total damage to plant; 0=no damage to plant), IPOHE
Description: as §4
as §2, with “8 days” for “one day”
as §5

[10] = system: AMAPA; experiment: Post-emergence biological efficacy; settings: 312 h, evaluated after 13 days, read-out: damage to plant (100=total damage to plant; 0=no damage to plant), AMAPA
Description: as §4
as §2, with “8 days” for “one day”
as §5

[11] = system: ECHCG; experiment: Post-emergence biological efficacy; settings: Echinochloa crus-galli, 312 h, evaluated after 13 days, read-out: damage to plant (100=total damage to plant; 0=no damage to plant), ECHCG
Description: as §4
as §2, with “8 days” for “one day”
as §5

[12] = system: DIGSA; experiment: Post-emergence biological efficacy; settings: Digitaria sanguinalis, 312 h, evaluated after 13 days, read-out: damage to plant (100=total damage to plant; 0=no damage to plant), DIGSA
Description: as §4
as §2, with “8 days” for “one day”
as §5

[13] = system: CHEAL; experiment: Post-emergence biological efficacy; settings: Chenopodium album, 312 h, evaluated after 13 days, read-out: damage to plant (100=total damage to plant; 0=no damage to plant), CHEAL
Description: as §4
as §2, with “8 days” for “one day”
as §5

[14] = system: EPHHL; experiment: Post-emergence biological efficacy; settings: 312 h, evaluated after 13 days, read-out: damage to plant (100=total damage to plant; 0=no damage to plant), EPHHL
Description: as §4
as §2, with “8 days” for “one day”
as §5

[15] = system: SETFA; experiment: Post-emergence biological efficacy; settings: Setaria faberi, 312 h, evaluated after 13 days, read-out: damage to plant (100=total damage to plant; 0=no damage to plant), SETFA
Description: as §4
as §2, with “8 days” for “one day”
as §5

Compound	pest or weed control at 250 g/ha [1]	pest or weed control at 250 g/ha [2]	pest or weed control at 250 g/ha [3]	pest or weed control at 250 g/ha [4]	pest or weed control at 250 g/ha [5]	pest or weed control at 250 g/ha [6]	pest or weed control at 250 g/ha [7]	pest or weed control at 250 g/ha [8]	pest or weed control at 250 g/ha [9]	pest or weed control at 250 g/ha [10]	pest or weed control at 250 g/ha [11]	pest or weed control at 250 g/ha [12]	pest or weed control at 250 g/ha [13]	pest or weed control at 250 g/ha [14]	pest or weed control at 250 g/ha [15]
CC(=O)OCC1(C)CC(c2cc(-n3c(=O)n(C)c(=S)n(C)c3=O)c(F)cc2Cl)=NO1 (stereo not drawn) [Compound 51, [3-[2-Chloro-5-(3,5-dimethyl-2,6-dioxo-4-thioxo-1,3,5-triazinan-1-yl)-4-fluoro-phenyl]-5-methyl-4H-isoxazol-5-yl]methyl acetate]	90%	80%	100%	90%	100%	100%	50%	80%	90%	100%	30%	100%	100%	100%	100%
Cn1c(=S)n(C)c(=O)n(-c2cc(C3=NOC(C)(C(=O)O)C3)c(Cl)cc2Cl)c1=O (stereo not drawn) [Compound 56, 3-[2,4-dichloro-5-(3,5-dimethyl-2,6-dioxo-4-thioxo-1,3,5-triazinan-1-yl)-phenyl]-5-methyl-4H-isoxazole-5-carboxylic acid]	10%	30%	90%	0%	10%	10%	30%	80%	90%	100%	90%	80%	90%	80%	90%
CCOC(=O)C1(C)CC(c2cc(-n3c(=O)n(C)c(=S)n(C)c3=O)c(Cl)cc2Cl)=NO1 (stereo not drawn) [Compound 58, Ethyl 3-[2,4-dichloro-5-(3,5-dimethyl-2,6-dioxo-4-thioxo-1,3,5-triazinan-1-yl)phenyl]-5-methyl-4H-isoxazole-5-carboxylate]	0%	60%	90%	0%	0%	0%	30%	90%	100%	90%	90%	80%	90%	70%	90%
COC(=O)C1(C)ON=C(c2cc(-n3c(=O)n(C)c(=S)n(C)c3=O)c(F)cc2Cl)C1C (stereo not drawn) [Compound 145, Methyl 3-[2-chloro-5-(3,5-dimethyl-2,6-dioxo-4-thioxo-1,3,5-triazinan-1-yl)-4-fluoro-phenyl]-4,5-dimethyl-4H-isoxazole-5-carboxylate]	90%	100%	100%	90%	100%	100%	100%	100%	100%	100%	100%	100%	100%	100%	100%
